Source: US9795681B2, “Tamper resistant dosage form comprising an adsorbent and an adverse agent” (Purdue Pharma L.P., priority 2004, dated 2017)
Where a name gives a salt, the structure may show the parent alone.

Legend:
[1] = Adsorption of naltrexone hydrochloride onto activated charcoal from 0.1N HCl, HPLC of liquid phase; assay type: physicochemical; settings: 37° C.; for Naltrexone adsorbed from solution / Naltrexone adsorbed onto the activated charcoal / Naltrexone content in fluid / Naltrexone content in fluid, HPLC area %: 0.1N aqueous HCl
Experimental: Example 1 describes a non-limiting method for making an adsorbent/adverse agent. The adsorbent used was DARCO activated charcoal obtained from EM Science, an affiliate of Merck KGaA of Darmstadt, Germany. The DARCO activated charcoal used was 20 to 40 mesh black granular charcoal which passed the USP absorptive power test (see The United States Pharmacopeia, 26:404 (2003)) for activated charcoal.
Adsorption of naltrexone: The activated charcoal (5.02 g) was added to a solution of naltrexone hydrochloride (504.26 mg) (obtained from Mallinkrodt, St. Louis, Mo.) in 0.1N HCI (900 mL). The resultant mixture was stirred at 100 rpm for 120 h at 37° C., and the adsorption (or uptake) of naltrexone hydrochloride into the activated charcoal was monitored by measuring the decrease in concentration of the naltrexone hydrochloride in the liquid phase using high performance liquid chromatography (HPLC). The data was used to calculate the amount of naltrexone adsorbed onto the activated charcoal, e.g., after 2 h, as follows: […]

[2] = Dynamic desorption of the Charcoal/Naltrexone by washing with 0.1N HCl; assay type: physicochemical; settings: 1 L aliquots of 0.1N HCl, 25° C.
Experimental: IN HCI. The concentration of naltrexone hydrochloride in the wash filtrates was measured using HPLC as described above.

[3] = administered orally; cited from earlier work

O=C1CC[C@@]2(O)[C@H]3Cc4ccc(O)c5c4[C@@]2(CCN3CC2CC2)[C@H]1O5 [naltrexone hydrochloride]
Naltrexone adsorbed from solution ([1]; time 0 min): 0.00%
Naltrexone adsorbed onto the activated charcoal ([1]; time 0 min): 0.00 mg
Naltrexone content in fluid ([1]; time 0 min): 504.26 mg
Naltrexone content in fluid, HPLC area % ([1]; time 0 min): 4.836 HPLC area %
Naltrexone adsorbed from solution ([1]; time 10 min): 23.34%
Naltrexone adsorbed onto the activated charcoal ([1]; time 10 min): 117.69 mg
Naltrexone content in fluid ([1]; time 10 min): 386.57 mg
Naltrexone content in fluid, HPLC area % ([1]; time 10 min): 3.707 HPLC area %
Naltrexone adsorbed from solution ([1]; time 20 min): 32.01%
Naltrexone adsorbed onto the activated charcoal ([1]; time 20 min): 161.39 mg
Naltrexone content in fluid ([1]; time 20 min): 342.87 mg
Naltrexone content in fluid, HPLC area % ([1]; time 20 min): 3.288 HPLC area %
Naltrexone adsorbed from solution ([1]; time 30 min): 37.62%
Naltrexone adsorbed onto the activated charcoal ([1]; time 30 min): 189.69 mg
Naltrexone content in fluid ([1]; time 30 min): 314.57 mg
Naltrexone content in fluid, HPLC area % ([1]; time 30 min): 3.017 HPLC area %
Naltrexone adsorbed from solution ([1]; time 40 min): 41.36%
Naltrexone adsorbed onto the activated charcoal ([1]; time 40 min): 208.55 mg
Naltrexone content in fluid ([1]; time 40 min): 295.71 mg
Naltrexone content in fluid, HPLC area % ([1]; time 40 min): 2.836 HPLC area %
Naltrexone adsorbed from solution ([1]; time 50 min): 45.37%
Naltrexone adsorbed onto the activated charcoal ([1]; time 50 min): 228.81 mg
Naltrexone content in fluid ([1]; time 50 min): 275.45 mg
Naltrexone content in fluid, HPLC area % ([1]; time 50 min): 2.642 HPLC area %
Naltrexone adsorbed from solution ([1]; time 60 min): 47.75%
Naltrexone adsorbed onto the activated charcoal ([1]; time 60 min): 240.76 mg
Naltrexone content in fluid ([1]; time 60 min): 263.50 mg
Naltrexone content in fluid, HPLC area % ([1]; time 60 min): 2.527 HPLC area %
Naltrexone adsorbed from solution ([1]; time 70 min): 49.10%
Naltrexone adsorbed onto the activated charcoal ([1]; time 70 min): 247.60 mg
Naltrexone content in fluid ([1]; time 70 min): 256.66 mg
Naltrexone content in fluid, HPLC area % ([1]; time 70 min): 2.461 HPLC area %
Naltrexone adsorbed from solution ([1]; time 80 min): 50.76%
Naltrexone adsorbed onto the activated charcoal ([1]; time 80 min): 255.97 mg
Naltrexone content in fluid ([1]; time 80 min): 248.29 mg
Naltrexone content in fluid, HPLC area % ([1]; time 80 min): 2.381 HPLC area %
Naltrexone adsorbed from solution ([1]; time 90 min): 52.98%
Naltrexone adsorbed onto the activated charcoal ([1]; time 90 min): 267.16 mg
Naltrexone content in fluid ([1]; time 90 min): 237.10 mg
Naltrexone content in fluid, HPLC area % ([1]; time 90 min): 2.274 HPLC area %
Naltrexone adsorbed from solution ([1]; time 100 min): 54.38%
Naltrexone adsorbed onto the activated charcoal ([1]; time 100 min): 274.20 mg
Naltrexone content in fluid ([1]; time 100 min): 230.06 mg
Naltrexone content in fluid, HPLC area % ([1]; time 100 min): 2.206 HPLC area %
Naltrexone adsorbed from solution ([1]; time 120 min): 55.36%
Naltrexone adsorbed onto the activated charcoal ([1]; time 120 min): 279.16 mg
Naltrexone content in fluid ([1]; time 120 min): 225.10 mg
Naltrexone content in fluid, HPLC area % ([1]; time 120 min): 2.159 HPLC area %
time within which substantially all of the naltrexone adsorption was completed ([1]; onto activated charcoal, 0.1N HCl): ≤ 1.5 h
wash steps during which the majority of the desorption of naltrexone hydrochloride occurred [2]: ≤ 18 wash steps

C[C@H]1[C@H]2Cc3ccc(O)cc3[C@]1(C)CCN2CC1CC1 [cyclazocine]
duration of action [3]: ~24 h

O=C1CC[C@@]2(O)[C@H]3Cc4ccc(O)c5c4[C@@]2(CCN3CC2CC2)[C@H]1O5 [naltrexone]
duration of action [3]: ~24 h
